Test results as given in the CheMixHub viscosity set.

Assay: xn = mol fraction of the nth substance listed

CC#N + CCCO
viscosity [mPa·s]
Details | 293.15 K | 298.15 K | 303.15 K | 308.15 K | 313.15 K | 323.15 K
101 kPa, x1 = 0.0674 | – | 1.557 | 1.267 | 1.035 | – | –
101 kPa, x1 = 0.1534 | – | 1.243 | 1.027 | 0.845 | – | –
101 kPa, x1 = 0.2933 | – | 0.903 | 0.761 | 0.645 | – | –
101 kPa, x1 = 0.3889 | – | 0.738 | 0.631 | 0.54 | – | –
101 kPa, x1 = 0.4881 | – | 0.622 | 0.539 | 0.469 | – | –
101 kPa, x1 = 0.5995 | – | 0.519 | 0.459 | 0.407 | – | –
101 kPa, x1 = 0.703 | – | 0.438 | 0.39 | 0.351 | – | –
101 kPa, x1 = 0.7951 | – | 0.393 | 0.354 | 0.321 | – | –
101 kPa, x1 = 0.909 | – | 0.361 | 0.329 | 0.303 | – | –
101.3 kPa, x1 = 0.1388 | – | 1.295 | 1.166 | 1.053 | 0.983 | –
101.3 kPa, x1 = 0.2787 | – | 0.922 | 0.842 | 0.769 | 0.706 | –
101.3 kPa, x1 = 0.3856 | – | 0.747 | 0.695 | 0.634 | – | –
101.3 kPa, x1 = 0.4939 | – | 0.615 | 0.574 | 0.53 | – | –
101.3 kPa, x1 = 0.5945 | – | 0.522 | 0.498 | 0.465 | – | –
101.3 kPa, x1 = 0.6887 | – | 0.463 | 0.436 | 0.413 | – | –
101.3 kPa, x1 = 0.7735 | – | 0.421 | 0.399 | 0.38 | – | –
101.3 kPa, x1 = 0.8539 | – | 0.391 | 0.374 | 0.355 | – | –
101.3 kPa, x1 = 0.9294 | – | 0.365 | 0.352 | 0.334 | – | –
101.32 kPa, x1 = 0.0214 | 2.052 | – | 1.623 | – | 1.298 | 1.052
101.32 kPa, x1 = 0.0926 | 1.636 | – | 1.329 | – | 1.089 | 0.8994
101.32 kPa, x1 = 0.131 | 1.467 | – | 1.195 | – | 0.9876 | 0.8269
101.32 kPa, x1 = 0.2287 | 1.114 | – | 0.9375 | – | 0.7852 | 0.665
101.32 kPa, x1 = 0.3661 | 0.8314 | – | 0.7 | – | 0.5983 | 0.5179
101.32 kPa, x1 = 0.4647 | 0.6986 | – | 0.5975 | – | 0.5164 | 0.451
101.32 kPa, x1 = 0.5532 | 0.5951 | – | 0.5163 | – | 0.4519 | 0.3984
101.32 kPa, x1 = 0.6088 | 0.5441 | – | 0.4725 | – | 0.4163 | 0.3701
101.32 kPa, x1 = 0.7151 | 0.4665 | – | 0.4106 | – | 0.3663 | 0.3284
101.32 kPa, x1 = 0.8071 | 0.4122 | – | 0.3683 | – | 0.3317 | 0.3003
101.32 kPa, x1 = 0.8778 | 0.3835 | – | 0.345 | – | 0.3126 | 0.2849

CC#N + O
Details | viscosity [mPa·s]
293.15 K, 101 kPa, x1 = 0.032 | 1.095
293.15 K, 101 kPa, x1 = 0.057 | 1.11
293.15 K, 101 kPa, x1 = 0.097 | 1.103
293.15 K, 101 kPa, x1 = 0.154 | 1.023
293.15 K, 101 kPa, x1 = 0.2 | 0.963
293.15 K, 101 kPa, x1 = 0.395 | 0.723
293.15 K, 101 kPa, x1 = 0.596 | 0.516
293.15 K, 101 kPa, x1 = 0.8 | 0.413
293.15 K, 101.33 kPa, x1 = 0.03 | 1.091
293.15 K, 101.33 kPa, x1 = 0.06 | 1.124
293.15 K, 101.33 kPa, x1 = 0.12 | 1.105
293.15 K, 101.33 kPa, x1 = 0.22 | 1.029
293.15 K, 101.33 kPa, x1 = 0.29 | 0.9338
293.15 K, 101.33 kPa, x1 = 0.37 | 0.7979
293.15 K, 101.33 kPa, x1 = 0.43 | 0.722
293.15 K, 101.33 kPa, x1 = 0.61 | 0.5948
293.15 K, 101.33 kPa, x1 = 0.7 | 0.5389
293.15 K, 101.33 kPa, x1 = 0.87 | 0.4657
298.15 K, 101 kPa, x1 = 0.046 | 0.867
298.15 K, 101 kPa, x1 = 0.1 | 0.862
298.15 K, 101 kPa, x1 = 0.2 | 0.858
298.15 K, 101 kPa, x2 = 0.2626 | 0.42
298.15 K, 101 kPa, x2 = 0.4466 | 0.517
298.15 K, 101 kPa, x2 = 0.4952 | 0.554
298.15 K, 101 kPa, x2 = 0.6032 | 0.651
298.15 K, 101 kPa, x2 = 0.613 | 0.66
298.15 K, 101 kPa, x2 = 0.6508 | 0.669
298.15 K, 101 kPa, x2 = 0.7029 | 0.754
298.15 K, 101 kPa, x2 = 0.7445 | 0.801
298.15 K, 101 kPa, x2 = 0.7543 | 0.815
298.15 K, 101.3 kPa, x1 = 0.025 | 0.9497
298.15 K, 101.3 kPa, x1 = 0.05 | 0.9779
298.15 K, 101.3 kPa, x1 = 0.075 | 0.9826
298.15 K, 101.3 kPa, x1 = 0.1 | 0.9704
298.15 K, 101.3 kPa, x1 = 0.2019 | 0.8706
298.15 K, 101.33 kPa, x2 = 0.1028 | 0.375
298.15 K, 101.33 kPa, x2 = 0.2071 | 0.402
298.15 K, 101.33 kPa, x2 = 0.297 | 0.436
298.15 K, 101.33 kPa, x2 = 0.4021 | 0.495
298.15 K, 101.33 kPa, x2 = 0.4985 | 0.563
298.15 K, 101.33 kPa, x2 = 0.6057 | 0.656
298.15 K, 101.33 kPa, x2 = 0.6987 | 0.75
298.15 K, 101.33 kPa, x2 = 0.7843 | 0.842
298.15 K, 101.33 kPa, x2 = 0.8773 | 0.94
303.15 K, 101 kPa, x1 = 0.032 | 0.861
303.15 K, 101 kPa, x1 = 0.0498 | 0.8684
303.15 K, 101 kPa, x1 = 0.057 | 0.872
303.15 K, 101 kPa, x1 = 0.065 | 0.8736
303.15 K, 101 kPa, x1 = 0.084 | 0.8728
303.15 K, 101 kPa, x1 = 0.097 | 0.868
303.15 K, 101 kPa, x1 = 0.1498 | 0.8314
303.15 K, 101 kPa, x1 = 0.154 | 0.815
303.15 K, 101 kPa, x1 = 0.2 | 0.774
303.15 K, 101 kPa, x1 = 0.2534 | 0.7376
303.15 K, 101 kPa, x1 = 0.3831 | 0.6065
303.15 K, 101 kPa, x1 = 0.395 | 0.607
303.15 K, 101 kPa, x1 = 0.5071 | 0.5088
303.15 K, 101 kPa, x1 = 0.596 | 0.449
303.15 K, 101 kPa, x1 = 0.6075 | 0.4532
303.15 K, 101 kPa, x1 = 0.7039 | 0.4039
303.15 K, 101 kPa, x1 = 0.8 | 0.372
303.15 K, 101 kPa, x1 = 0.8042 | 0.3676
303.15 K, 101 kPa, x1 = 0.894 | 0.3442
308.15 K, 101 kPa, x1 = 0.046 | 0.707
308.15 K, 101 kPa, x1 = 0.0498 | 0.7729
308.15 K, 101 kPa, x1 = 0.065 | 0.7826
308.15 K, 101 kPa, x1 = 0.084 | 0.7812
308.15 K, 101 kPa, x1 = 0.1 | 0.705
308.15 K, 101 kPa, x1 = 0.1498 | 0.7485
308.15 K, 101 kPa, x1 = 0.2 | 0.697
308.15 K, 101 kPa, x1 = 0.2534 | 0.67
308.15 K, 101 kPa, x1 = 0.3831 | 0.5596
308.15 K, 101 kPa, x1 = 0.5071 | 0.4711
308.15 K, 101 kPa, x1 = 0.6075 | 0.4236
308.15 K, 101 kPa, x1 = 0.7039 | 0.3804
308.15 K, 101 kPa, x1 = 0.8042 | 0.3486
308.15 K, 101 kPa, x1 = 0.894 | 0.3278
313.15 K, 101 kPa, x1 = 0.032 | 0.698
313.15 K, 101 kPa, x1 = 0.0498 | 0.6998
313.15 K, 101 kPa, x1 = 0.057 | 0.707
313.15 K, 101 kPa, x1 = 0.065 | 0.7058
313.15 K, 101 kPa, x1 = 0.084 | 0.7062
313.15 K, 101 kPa, x1 = 0.097 | 0.707
313.15 K, 101 kPa, x1 = 0.1498 | 0.6782
313.15 K, 101 kPa, x1 = 0.154 | 0.668
313.15 K, 101 kPa, x1 = 0.2 | 0.641
313.15 K, 101 kPa, x1 = 0.2534 | 0.612
313.15 K, 101 kPa, x1 = 0.3831 | 0.5157
313.15 K, 101 kPa, x1 = 0.395 | 0.516
313.15 K, 101 kPa, x1 = 0.5071 | 0.441
313.15 K, 101 kPa, x1 = 0.596 | 0.399
313.15 K, 101 kPa, x1 = 0.6075 | 0.3978
313.15 K, 101 kPa, x1 = 0.7039 | 0.3598
313.15 K, 101 kPa, x1 = 0.8 | 0.34
313.15 K, 101 kPa, x1 = 0.8042 | 0.3318
313.15 K, 101 kPa, x1 = 0.894 | 0.3132
318.15 K, 101 kPa, x1 = 0.046 | 0.584
318.15 K, 101 kPa, x1 = 0.0498 | 0.635
318.15 K, 101 kPa, x1 = 0.065 | 0.6402
318.15 K, 101 kPa, x1 = 0.084 | 0.6409
318.15 K, 101 kPa, x1 = 0.1 | 0.58
318.15 K, 101 kPa, x1 = 0.1498 | 0.6185
318.15 K, 101 kPa, x1 = 0.2 | 0.578
318.15 K, 101 kPa, x1 = 0.2534 | 0.5635
318.15 K, 101 kPa, x1 = 0.3831 | 0.4801
318.15 K, 101 kPa, x1 = 0.5071 | 0.4101
318.15 K, 101 kPa, x1 = 0.6075 | 0.3754
318.15 K, 101 kPa, x1 = 0.7039 | 0.3408
318.15 K, 101 kPa, x1 = 0.894 | 0.2996
323.15 K, 101 kPa, x1 = 0.032 | 0.579
323.15 K, 101 kPa, x1 = 0.0498 | 0.5802
323.15 K, 101 kPa, x1 = 0.057 | 0.587
323.15 K, 101 kPa, x1 = 0.097 | 0.589
323.15 K, 101 kPa, x1 = 0.154 | 0.561
323.15 K, 101 kPa, x1 = 0.2 | 0.54
323.15 K, 101 kPa, x1 = 0.395 | 0.447
323.15 K, 101 kPa, x1 = 0.596 | 0.356
323.15 K, 101 kPa, x1 = 0.8 | 0.312
